Experimental data: the supplement of paper PMC11061612

How the values were obtained:
Doxorubicin = compound: COc1cccc2c1C(=O)c1c(O)c3c(c(O)c1C2=O)C[C@@](O)(C(=O)CO)C[C@@H]3O[C@H]1C[C@H](N)[C@H](O)[C@H](C)O1 [Doxorubicin]; details: max 1 µM
Outline: (§1)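 Cancer cell lines were dosed for 72 hours (final DMSO typically 0.2%) after 24 hours at 37°C and 5% CO2 in 1536-well plates containing 7.5 μl DMEM/F12 or RPMI with 10% FBS. Viability came from CellTiter-Glo 2.0 luminescence, scaled between blank-well and DMSO-well means, and dose responses were fitted to a two-parameter logistic curve with a non-linear mixed effects model. The single-agent IC50 was obtained from this fit.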

Paclitaxel = compound: CC(=O)O[C@H]1C(=O)[C@@]2(C)[C@H]([C@H](OC(=O)c3ccccc3)[C@]3(O)C[C@H](OC(=O)[C@H](O)[C@@H](NC(=O)c4ccccc4)c4ccccc4)C(C)=C1C3(C)C)[C@]1(OC(C)=O)CO[C@@H]1C[C@@H]2O [Paclitaxel]; details: max 3 µM
Outline: as §1

Savolitinib = compound: C[C@@H](c1ccc2nccn2c1)n1nnc2ncc(-c3cnn(C)c3)nc21 [Savolitinib]; details: max 1 µM
Outline: as §1

AZD0156 = compound: CN(C)CCCOc1ccc(-c2ccc3ncc4c(c3c2)n(C2CCOCC2)c(=O)n4C)cn1 [AZD0156]; details: max 3 µM
Outline: as §1

Alisertib = compound: COc1cc(Nc2ncc3c(n2)-c2ccc(Cl)cc2C(c2c(F)cccc2OC)=NC3)ccc1C(=O)O [Alisertib]; details: max 10 µM
Outline: as §1

AZD2811 = compound: CCN(CCO)CCCOc1ccc2c(Nc3cc(CC(=O)Nc4cccc(F)c4)[nH]n3)ncnc2c1 [AZD2811]; details: max 1 µM
Outline: as §1

Taselisib = compound: Cc1nc(-c2cn3c(n2)-c2ccc(-c4cnn(C(C)(C)C(N)=O)c4)cc2OCC3)n(C(C)C)n1 [Taselisib]; details: max 10 µM
Outline: as §1

SN-38 = compound: CCc1c2c(nc3ccc(O)cc13)-c1cc3c(c(=O)n1C2)COC(=O)[C@]3(O)CC [SN-38]; details: max 0.3 µM
Outline: as §1

Carboplatin = compound: C1CC(C1)(C(=O)[O-])C(=O)[O-].N.N.[Pt+2] [Carboplatin]; details: max 10 µM
Outline: as §1

Etoposide = compound: COc1cc([C@@H]2c3cc4c(cc3[C@@H](O[C@@H]3O[C@@H]5CO[C@@H](C)O[C@H]5[C@H](O)[C@H]3O)[C@H]3COC(=O)[C@H]23)OCO4)cc(OC)c1O [Etoposide]; details: max 10 µM
Outline: as §1

AZD6738 = compound: C[C@@H]1COCCN1C2=NC(=NC(=C2)C3(CC3)[S@](=N)(=O)C)C4=C5C=CNC5=NC=C4 [AZD6738]; details: max 10 µM
Outline: as §1

5-Fluorouracil = compound: O=c1[nH]cc(F)c(=O)[nH]1 [5-Fluorouracil]; details: max 20 µM
Outline: as §1

Venetoclax = compound: CC1(C)CCC(CN2CCN(c3ccc(C(=O)NS(=O)(=O)c4ccc(NCC5CCOCC5)c([N+](=O)[O-])c4)c(Oc4cnc5[nH]ccc5c4)c3)CC2)=C(c2ccc(Cl)cc2)C1 [Venetoclax]; details: max 1 µM
Outline: as §1

Gefitinib = compound: COc1cc2ncnc(Nc3ccc(F)c(Cl)c3)c2cc1OCCCN1CCOCC1 [Gefitinib]; details: max 10 µM
Outline: as §1

AZD5363 = compound: C1CN(CCC1(C(=O)N[C@@H](CCO)C2=CC=C(C=C2)Cl)N)C3=NC=NC4=C3C=CN4 [AZD5363]; details: max 10 µM
Outline: as §1

AZD1390 = compound: CC(C)n1c(=O)n(C)c2cnc3cc(F)c(-c4ccc(OCCCN5CCCCC5)nc4)cc3c21 [AZD1390]; details: max 0.3 µM
Outline: as §1

Prexasertib = compound: COc1cccc(OCCCN)c1-c1cc(Nc2cnc(C#N)cn2)n[nH]1 [Prexasertib]; details: max 1 µM
Outline: as §1

AZD4320 = compound: CN(CC[C@H](CSC1=CC=CC=C1)NC2=C(C=C(C=C2)S(=O)(=O)NC(=O)C3=CC=C(C=C3)N4CCC(CC4)[C@H](C5=CC=CC=C5C6=CC=C(C=C6)Cl)O)S(=O)(=O)C(F)(F)F)CCO [AZD4320]; details: max 1 µM
Outline: as §1

AZD1775 = compound: C=CCn1c(=O)c2cnc(Nc3ccc(N4CCN(C)CC4)cc3)nc2n1-c1cccc(C(C)(C)O)n1 [AZD1775]; details: max 3 µM
Outline: as §1

SRA737 = compound: N#Cc1cnc(Nc2cc(NC[C@H]3CNCCO3)c(C(F)(F)F)cn2)cn1 [SRA737]; details: max 10 µM
Outline: as §1

MK-2206 = compound: NC1(c2ccc(-c3nc4ccn5c(=O)[nH]nc5c4cc3-c3ccccc3)cc2)CCC1 [MK-2206]; details: max 10 µM
Outline: as §1

Lapatinib = compound: CS(=O)(=O)CCNCc1ccc(-c2ccc3ncnc(Nc4ccc(OCc5cccc(F)c5)c(Cl)c4)c3c2)o1 [Lapatinib]; details: max 10 µM
Outline: as §1

AZD5153 = compound: COc1nnc2ccc(N3CCC(c4ccc(OCCN5CCN(C)C(=O)[C@H]5C)cc4)CC3)nn12 [AZD5153]; details: max 1 µM
Outline: as §1

AZD7648 = compound: Cc1cc2ncnn2cc1Nc1ncc2c(n1)n(C1CCOCC1)c(=O)n2C [AZD7648]; details: max 10 µM
Outline: as §1

AZD5991 = compound: Cc1c2c(nn1C)CSCc1cc(n(C)n1)CSc1cc(c3ccccc3c1)OCCCc1c(C(=O)O)n(C)c3c-2c(Cl)ccc13 [AZD5991]; details: max 1 µM
Outline: as §1

Trametinib = compound: CC(=O)Nc1cccc(-n2c(=O)n(C3CC3)c(=O)c3c(Nc4ccc(I)cc4F)n(C)c(=O)c(C)c32)c1 [Trametinib]; details: max 1 µM
Outline: as §1

Dasatinib = compound: CC1=C(C(=CC=C1)Cl)NC(=O)C2=CN=C(S2)NC3=CC(=NC(=N3)C)N4CCN(CC4)CCO [Dasatinib]; details: max 2 µM
Outline: as §1

[1] = compound: O=C(Nc1ccc2[nH]nc(-c3ccncc3)c2c1)[C@@H]1CCN(CC(=O)N2CCN(c3ccc(-c4ncccn4)cc3)CC2)C1; details: max 5 µM
Outline: as §1

Selumetinib = compound: Cn1cnc2c(F)c(Nc3ccc(Br)cc3Cl)c(C(=O)NOCCO)cc21 [Selumetinib]; details: max 10 µM
Outline: as §1

AZD8186 = compound: C[C@@H](Nc1cc(F)cc(F)c1)c1cc(C(=O)N(C)C)cc2c(=O)cc(N3CCOCC3)oc12 [AZD8186]; details: max 10 µM
Outline: as §1

Crizotinib = compound: C[C@@H](Oc1cc(-c2cnn(C3CCNCC3)c2)cnc1N)c1c(Cl)ccc(F)c1Cl [Crizotinib]; details: max 10 µM
Outline: as §1

Palbociclib = compound: CC(=O)c1c(C)c2cnc(Nc3ccc(N4CCNCC4)cn3)nc2n(C2CCCC2)c1=O [Palbociclib]; details: max 10 µM
Outline: as §1

Gemcitabine = compound: Nc1ccn([C@@H]2O[C@H](CO)[C@@H](O)C2(F)F)c(=O)n1 [Gemcitabine]; details: max 0.3 µM
Outline: as §1

SG3199 = compound: CC1=CN2[C@@H](C1)C=NC3=CC(=C(C=C3C2=O)OC)OCCCCCOC4=C(C=C5C(=C4)N=C[C@@H]6CC(=CN6C5=O)C)OC [SG3199]; details: max 0.001 µM
Outline: as §1

Olaparib = compound: O=C(c1cc(Cc2n[nH]c(=O)c3ccccc23)ccc1F)N1CCN(C(=O)C2CC2)CC1 [Olaparib]; details: max 10 µM
Outline: as §1

Cell Line | IC50, cell viability 72 h (Doxorubicin) | IC50, cell viability 72 h (Paclitaxel) | IC50, cell viability 72 h (Savolitinib) | IC50, cell viability 72 h (AZD0156) | IC50, cell viability 72 h (Alisertib) | IC50, cell viability 72 h (AZD2811) | IC50, cell viability 72 h (Taselisib) | IC50, cell viability 72 h (SN-38) | IC50, cell viability 72 h (Carboplatin) | IC50, cell viability 72 h (Etoposide) | IC50, cell viability 72 h (AZD6738) | IC50, cell viability 72 h (5-Fluorouracil) | IC50, cell viability 72 h (Venetoclax) | IC50, cell viability 72 h (Gefitinib) | IC50, cell viability 72 h (AZD5363) | IC50, cell viability 72 h (AZD1390) | IC50, cell viability 72 h (Prexasertib) | IC50, cell viability 72 h (AZD4320) | IC50, cell viability 72 h (AZD1775) | IC50, cell viability 72 h (SRA737) | IC50, cell viability 72 h (MK-2206) | IC50, cell viability 72 h (Lapatinib) | IC50, cell viability 72 h (AZD5153) | IC50, cell viability 72 h (AZD7648) | IC50, cell viability 72 h (AZD5991) | IC50, cell viability 72 h (Trametinib) | IC50, cell viability 72 h (Dasatinib) | IC50, cell viability 72 h [1] | IC50, cell viability 72 h (Selumetinib) | IC50, cell viability 72 h (AZD8186) | IC50, cell viability 72 h (Crizotinib) | IC50, cell viability 72 h (Palbociclib) | IC50, cell viability 72 h (Gemcitabine) | IC50, cell viability 72 h (SG3199) | IC50, cell viability 72 h (Olaparib)
NCI-H929 (Plasma Cell Myeloma) | 548 nM | 4.54 nM | > 1000 nM | 1150 nM | > 10000 nM | > 1000 nM | 23.6 nM | 13.1 nM | > 10000 nM | 1250 nM | 5410 nM | 7150 nM | > 1000 nM | > 10000 nM | 106 nM | > 300 nM | 179 nM | > 1000 nM | 1060 nM | > 10000 nM | 69.9 nM | > 10000 nM | 13.4 nM | 2270 nM | 17.5 nM | 32.9 nM | > 2000 nM | 981 nM | 3130 nM | 728 nM | 982 nM | > 10000 nM | 12.1 nM | > 1 nM | > 10000 nM
NCI-H2731 (Mesothelioma) | > 1000 nM | 1780 nM | > 1000 nM | > 3000 nM | > 10000 nM | > 1000 nM | > 10000 nM | > 300 nM | > 10000 nM | > 10000 nM | > 10000 nM | > 20000 nM | > 1000 nM | > 10000 nM | > 10000 nM | > 300 nM | > 1000 nM | > 1000 nM | > 3000 nM | > 10000 nM | > 10000 nM | > 10000 nM | > 1000 nM | > 10000 nM | > 1000 nM | > 1000 nM | > 2000 nM | > 5000 nM | > 10000 nM | > 10000 nM | > 10000 nM | > 10000 nM | > 300 nM | > 1 nM | > 10000 nM
NCI-H3122 (Lung Adenocarcinoma) | 237 nM | 9.01 nM | > 1000 nM | > 3000 nM | > 10000 nM | > 1000 nM | 1080 nM | 17.7 nM | > 10000 nM | > 10000 nM | 7460 nM | > 20000 nM | > 1000 nM | > 10000 nM | > 10000 nM | > 300 nM | 315 nM | > 1000 nM | > 3000 nM | > 10000 nM | 7950 nM | > 10000 nM | 612 nM | > 10000 nM | > 1000 nM | 58.9 nM | > 2000 nM | 958 nM | 7820 nM | > 10000 nM | 323 nM | 2580 nM | 32 nM | > 1 nM | > 10000 nM
